# Target: T1, protein kinase Cα (PKCα) (Homo sapiens, UniProt P17252)
# T1 construct: isolate and photo-release endogenous PKCα from the undiluted detergent fractionated HeLa cell extracts; endogenous in cells; host or cells: HeLa cells (ATCC)
# Assay: PMA mediated PKCα sub-cellular translocation measured by kinase activity after isolation with photocleavable antibodies
# Assay type: cell-based
# Conditions: cultured HeLa cells stimulated with 200 nM PMA for 5 min; detergent fractionated; based on kinase activity of photocleavable antibody isolated protein; n=4
# Procedure: FIG. 20. Phorbol ester (PMA) mediated protein kinase Cα (PKCα) sub-cellular translocation as measured by functional activity following isolation with photocleavable antibodies. Cultured HeLa cells were stimulated with 200 nM PMA for 5 min and detergent fractionated into the cytosol and membrane compartments prior to isolation and purification with the photocleavable antibodies.
# Cultured HeLa cells (ATCC; Manassas, Va.) were stimulated for 5 min with 200 nM Phorbol-12-Myristate-13-Acetate (PMA; EMD Biosciences, Inc., San Diego, Calif.) and subsequently detergent fractionated into sub-cellular compartments according to reported procedures [Ramsby et al. (1994) Electrophoresis 15, 265-277; Ramsby & Makowski. (1999) Methods Mol Biol 112, 53-66; Chiang et al. (2000) J Biochem Biophys Methods 46, 53-68]. PMA is a potent activator of PKCα and is well known to cause translocation of the kinase from the cytosolic to the membrane sub-cellular compartments [Ross & Joyner. (1997) Endothelium 5, 321-332; Bazan & Rapoport. (1996) J Pharmacol Toxicol Methods 36, 87-95; Yazlovitskaya Melnykovych. (1995) Cancer Lett 88, 179-183]. […]
compound,measurement,value
"CCCCCCCCCCCCCC(=O)O[C@@H]1[C@@H](C)[C@@]2(O)[C@@H](C=C(CO)C[C@]3(O)C(=O)C(C)=C[C@@H]23)[C@@H]2C(C)(C)[C@]12OC(C)=O [PMA, Phorbol-12-Myristate-13-Acetate]","relative sub-cellular distribution of PKCα, cytosol",16±4%
same,"relative sub-cellular distribution of PKCα, membrane",84±3%

# Source: patent US9910034B2, “Methods and compositions for phototransfer” (AmberGen, Inc., priority 2007, dated 2018)
